Data on twelve compounds can be found in PMC6471197, “Biological Activity and In Silico Study of 3-Modified Derivatives of Betulin and Betulinic Aldehyde” (International Journal of Molecular Sciences, 2019).

Read-outs that look alike come from different tables or passages of the source.

The test system of test [1] is MV-4-11 (biphenotypic B myelomonocytic leukaemia) cell line. The experiment in a line: MTT antiproliferative assay on MV-4-11 cells. The note with it: MTT assay, Neg = negative in the concentration used. In kind it is cell-based, human. The protocol:
(§1) The applied human cell lines such as MV-4-11 (biphenotypic B myelomonocytic leukaemia), A549 (lung adenocarcinoma), Du-145 (prostate), Hs294T (melanoma), MCF-7 (breast adenocarcinoma) and MCF-10A (normal mammary gland) were obtained from the American Type Culture Collection (ATCC, Rockville, MD, USA). The all cell lines are maintained at the Cell Culture Collection of the Institute of Immunology and Experimental Therapy (Wrocław, Poland). The cells were plated in 96-well plates (Sarstedt, Newton, MA, USA) at a density of 1 × 10^4 cells per well in 100 µL of appropriate culture medium overnight. Biphenotypic B myelomonocytic leukaemia (MV-4-11) cells were cultured in RPMI 1640 medium (Gibco, Scotland, UK) with GlutaMAX (Thermo-Fisher Scientific, Warsaw, Poland) adjusted to contain 1.0 mM sodium pyruvate (Sigma-Aldrich, Chemie GmbH, Steinheim, Germany). Human lung adenocarcinoma (A549) cells were cultured in mixture RPMI 1640 and Opti-MEM medium (Gibco, Scotland, UK) supplemented with GlutaMAX (ThermoFisher Scientific, Warsaw, Poland) and 2mM L-glutamine adjusted to contain 1.0 mM sodium pyruvate. Human prostate (Du-145) and human breast adenocarcinoma (MCF-7) cells were cultured in Eagle medium (IIET, Wrocław, Poland), supplemented with 2 mM L-glutamine adjusted to contain 1.0 mM sodium pyruvate. Human melanoma (Hs294T) cells were cultured in Dulbecco medium (Gibco, Scotland, UK) supplemented with 2 mM L-glutamine. The normal human mammary gland cells (MCF-10A) were cultured in Ham’s F-12 medium containing 2 mM L-glutamine, 5% horse serum, epidermal growth factor EGF (100 μL/100 mL of medium), hydrocortisone (1 mL/ 100 mL of medium), insulin (100 μL/100 mL of medium) and cholera toxin (0.1 mL/100 mL of medium). All applied culture media except MCF-10A were supplemented with 10% of FBS (MV-4-11 cultured with FBS derived from Sigma-Aldrich, Chemie GmbH, Steinheim, Germany, the other cell lines FBS HyClone Thermo-Fisher Scientific, Warsaw, Poland) and streptomycin (100 µg/mL), penicillin (100 U/mL) (both from Polfa, Tarchomin, Poland). The tested cell lines were grown at 37 °C in humid atmosphere saturated with 5% CO2. In our studies were used two assays for determination the cytotoxic activity in vitro of triterpene derivatives. By dissolving 1 mg of each tested compound in 100 µL of DMSO, stock solutions at a 10 mg/mL were obtained. Next, the stock solutions were diluted in appropriate culture medium to reach the required concentrations of compounds ranging from 0.1 to 100 µg/mL. The MTT assay was used for the cytotoxicity screening against biphenotypic B myelomonocytic leukaemia (MV-4-11). The SRB assay was performed for adherent cells such as A549, Du-145, Hs294T, MCF-7 and MCF-10A. Both assays were carried as described by Wietrzyk et al.. The triterpenes in given concentration were examined in triplicates in each experiment, which was repeated 3 times. The results of anticancer activity in vitro were presented as an IC50 in µM. Cisplatin and betulin 1 were used as reference substances.
In general terms: Formazan colour is commonly taken as a measure of viable cells.

Test [2] relates to A549 (lung adenocarcinoma). The test is described as follows: SRB antiproliferative assay on A549 cells. In kind it is cell-based, human. The protocol:
as §1

A further test concerns Du-145 (prostate). The test is described as follows: SRB antiproliferative assay on Du-145 cells. Format: cell-based, human. The note with it: for IC50: SRB assay. The protocol: as §1
(In general: Sulforhodamine B stains cellular protein and so reports cell mass.)

The next test concerns Hs294T (melanoma). The test is described as follows: SRB antiproliferative assay on Hs294T cells. The note with it: for IC50: SRB assay. In kind it is cell-based, human. The protocol: as §1
For test [3], the system named is MCF-7 (breast adenocarcinoma). The experiment in a line: SRB antiproliferative assay on MCF-7 cells. Format: cell-based, human. The note with it: for IC50: SRB assay. The protocol:
as §1

Test [4] relates to MCF-10A (normal mammary gland). The test is described as follows: SRB antiproliferative assay on MCF-10A cells. The note with it: Neg = negative in the concentration used. Format: cell-based, human. The protocol: as §1
Test [5] has as its system A549, Du-145, Hs294T, MCF-7 and MCF-10A. The experiment in a line: SRB antiproliferative assay, ranges over the cell line panel. In kind it is cell-based. The note with it: Homo sapiens. The protocol: The applied human cell lines such as MV-4-11 (biphenotypic B myelomonocytic leukaemia), A549 (lung adenocarcinoma), Du-145 (prostate), Hs294T (melanoma), MCF-7 (breast adenocarcinoma) and MCF-10A (normal mammary gland) were obtained from the American Type Culture Collection (ATCC, Rockville, MD, USA). The all cell lines are maintained at the Cell Culture Collection of the Institute of Immunology and Experimental Therapy (Wrocław, Poland). The cells were plated in 96-well plates (Sarstedt, Newton, MA, USA) at a density of 1 × 10^4 cells per well in 100 µL of appropriate culture medium overnight. Biphenotypic B myelomonocytic leukaemia (MV-4-11) cells were cultured in RPMI 1640 medium (Gibco, Scotland, UK) with GlutaMAX (Thermo-Fisher Scientific, Warsaw, Poland) adjusted to contain 1.0 mM sodium pyruvate (Sigma-Aldrich, Chemie GmbH, Steinheim, Germany). Human lung adenocarcinoma (A549) cells were cultured in mixture RPMI 1640 and Opti-MEM medium (Gibco, Scotland, UK) supplemented with GlutaMAX (ThermoFisher Scientific, Warsaw, Poland) and 2mM L-glutamine adjusted to contain 1.0 mM sodium pyruvate. Human prostate (Du-145) and human breast adenocarcinoma (MCF-7) cells were cultured in Eagle medium (IIET, Wrocław, Poland), supplemented with 2 mM L-glutamine adjusted to contain 1.0 mM sodium pyruvate. […]

Where [6] appears, read: SI = IC50 for normal mammary gland (MCF-10A)/IC50 on tumour cell line.

The term IC50 denotes the concentration that inhibits the measured activity by half.

Take `C=C(C)[C@@H]1CC[C@]2(CO)CC[C@]3(C)[C@H](CC[C@@H]4[C@@]5(C)CC[C@H](O)C(C)(C)[C@@H]5CC[C@]43C)[C@@H]12` [Betulin 1, betulin]: the IC50 turned out to be 8.1 ± 2.9 µM in test [1] (Homo sapiens, MV4-11); 8.6 ± 0.7 µM in test [2] (Homo sapiens, A549); 44 ± 19.4 µM in the test with Du-145 (prostate) (Homo sapiens, DU-145); 44.1 ± 7.2 µM with Hs294T (melanoma) (Homo sapiens, Hs 294T); 26.2 ± 6.5 µM in test [3] (Homo sapiens, MCF7); 124 ± 41.6 µM in test [4] (Homo sapiens, MCF-10A).
`N.N.[Cl][Pt][Cl]` [Cisplatin, reference compound]: the IC50 in test [1] was found to be 1 ± 0.27 µM; in test [2] it was 4.3 ± 1.3 µM; with Du-145 (prostate), 1.6 ± 0.3 µM; with Hs294T (melanoma), 6.3 ± 1.3 µM; in test [3] it was 7.7 ± 0.3 µM; in test [4] it was 14.7 ± 1 µM.
For the compound `C=C(C)C1CC[C@]2(CO)CC[C@]3(C)C(CCC4[C@@]5(C)CC[C@H](OC(C)=O)C(C)(C)C5CC[C@]43C)C12` (stereo partly drawn) [Compound 2, 3-acetylbetulin, reference compound], the IC50 in test [1] (Homo sapiens, MV4-11) was 27.2 ± 5.9 µM.
On to `C=C(C)C1CC[C@]2(C=O)CC[C@]3(C)C(CCC4[C@@]5(C)CC[C@H](OC(C)=O)C(C)(C)C5CC[C@]43C)C12` (stereo partly drawn) [Compound 3, 3-acetylbetulinic aldehyde, reference compound], for which, in test [1] (Homo sapiens, MV4-11), it took 35 ± 12.8 µM to reach half-maximal inhibition (IC50).
On the same count and under the same terms, under `C=C(C)C1CC[C@]2(CO)CC[C@]3(C)C(CCC4[C@@]5(C)CC[C@H](OC(=O)CC)C(C)(C)C5CC[C@]43C)C12` (stereo partly drawn) [Compound 5, 3-Propanoylbetulin] stands 38.9 ± 11.8 µM.
Regarding `C=CC(=O)O[C@H]1CC[C@@]2(C)C(CC[C@]3(C)C2CCC2C4C(C(=C)C)CC[C@]4(CO)CC[C@]23C)C1(C)C` (stereo partly drawn) [Compound 6, 3-(2-Propenoyl)betulin], the IC50 in test [1] (Homo sapiens, MV4-11) was determined as 4.2 ± 1.2 µM; in test [2] (Homo sapiens, A549), 23.3 ± 1.8 µM; in the test on Du-145 (prostate) (Homo sapiens, DU-145), 84.5 ± 39.4 µM; in test [3] (Homo sapiens, MCF7) it was 45.9 ± 3.8 µM; in test [4] (Homo sapiens, MCF-10A), 120 ± 15.3 µM.
`C=C(C)C1CC[C@]2(CO)CC[C@]3(C)C(CCC4[C@@]5(C)CC[C@H](OC(=O)C#CC6CC6)C(C)(C)C5CC[C@]43C)C12` (stereo partly drawn) [Compound 7, 3-(3-Cyclopropyl-2-propynoyl)betulin] displayed an IC50 in test [1] (Homo sapiens, MV4-11) of 62.4 ± 9.9 µM.
For `C=C(C)C1CC[C@]2(CO)CC[C@]3(C)C(CCC4[C@@]5(C)CC[C@H](OC(=O)C#Cc6ccccc6)C(C)(C)C5CC[C@]43C)C12` (stereo partly drawn) [Compound 8, 3-Phenylpropynoylbetulin], the “MV-4-11 IC50” value in test [1] is “Neg”.
With `C=C(C)C1CC[C@]2(CO)CC[C@]3(C)C(CCC4[C@@]5(C)CC[C@H](OC(=O)C#CC)C(C)(C)C5CC[C@]43C)C12` (stereo partly drawn) [Compound 9, 3-(2-Butynoyl)betulin], the IC50 in test [1] (Homo sapiens, MV4-11) was found to be 4.5 ± 1.7 µM; in test [2] (Homo sapiens, A549), 83.5 ± 25.3 µM; in the test with Du-145 (prostate) (Homo sapiens, DU-145) it was 7.3 ± 0.8 µM; with Hs294T (melanoma) (Homo sapiens, Hs 294T), 10.6 ± 4.3 µM; in test [3] (Homo sapiens, MCF7), 10.4 ± 5.7 µM; in test [4] (Homo sapiens, MCF-10A), 71.7 ± 8.6 µM. Further, the IC50 lay within 7.3 to 83.5 µM in test [5] (range over A549, Du-145, Hs294T, MCF-7, MCF-10A, read-out: IC50 against the tested cell lines); 7.3 to 10.6 µM in test [5] (range over the three cell lines, read-out: IC50 towards Du-145, MCF-7 and Hs294T cells). Further, the “Selectivity Index (SI) towards Du-145” value in the test on Du-145 (prostate) (setting [6]) turned out to be 9.82. In addition, the “Selectivity Index (SI) towards Hs294T” value with Hs294T (melanoma) (setting [6]) stood at 6.76. In addition, the “Selectivity Index (SI) towards MCF-7” value in test [3] (setting [6]) is given as 6.89.
As for `C=C(C)C1CC[C@]2(CO)CC[C@]3(C)C(CCC4[C@@]5(C)CC[C@H](OC(=O)OCC)C(C)(C)C5CC[C@]43C)C12` (stereo partly drawn) [Compound 10, 3-Ethoxycarbonylbetulin], half-maximal inhibition in test [1] (Homo sapiens, MV4-11) (IC50) required 20 ± 1.5 µM.
Regarding `C=C(C)C1CC[C@]2(CO)CC[C@]3(C)C(CCC4[C@@]5(C)CC[C@H](OC(=O)OCCC)C(C)(C)C5CC[C@]43C)C12` (stereo partly drawn) [Compound 11, 3-Propoxycarbonylbetulin], in test [1] (Homo sapiens, MV4-11), half-maximal inhibition (IC50) required 30.8 ± 1.5 µM.
The compound `C=CCOC(=O)O[C@H]1CC[C@@]2(C)C(CC[C@]3(C)C2CCC2C4C(C(=C)C)CC[C@]4(CO)CC[C@]23C)C1(C)C` (stereo partly drawn) [Compound 12, 3-Allyloxycarbonylbetulin] registered an IC50 in test [1] (Homo sapiens, MV4-11) of 20.1 ± 4.7 µM.
